Experimental findings from US20240368151A1, “NOVEL ERGOLINES AND METHODS OF TREATING MOOD DISORDERS” (priority 2021, published 2024) are described below.

For this assay, the system named is C57BL/6 mice. As to the kind of experiment: Marble burying test (MBT) in mice. In kind it is in vivo, mouse. Conditions: SC, 30-minute period. On the procedure: Compound 1 produced an anxiolytic-like effect in the marble burying test (MBT) in C57BL/6 mice (FIG. 3).
Animals. Adult male C57BL/6 mice, aged 8-10 weeks (body weight 20-25 g) were used in these experiments. Animals were housed under controlled temperatures and 12-hour light/dark cycles (lights on between 07:00-19:00 h), with ad libitum food and water. This study was carried out in strict accordance with the requirements of the Committee for the Purpose of Control and Supervision of Experiments on Animals (CPCSEA), India. All efforts were made to minimize suffering.
Drugs and Drug Administration. Compound 1 was synthesized as described above. Desipramine HCl was commercially obtained. The test compound, vehicle, and the positive control desipramine were administered subcutaneously (SC), with doses calculated based on the freebase. Normal saline was used as the vehicle. All compounds were administered at a volume of 10 mL/kg. All treatments were administered 30 minutes prior to the start of behavioral testing. Group size was n=9-10 per treatment.
Marble Burying Test (MBT). […] Mice were handled for about 2 min daily for the 3 days prior to the beginning of the experimental procedure. […] The total number of marbles buried were counted in three 10-minute time bins (total 30 minutes). […]

As to `CCCN1C[C@H](C(=O)N(CC)CC)C=C2c3cccc4[nH]cc(c34)C[C@H]21` [Compound 1, (6aR,9R)-N,N-diethyl-7-propyl-4,6,6a,7,8,9-hexahydroindolo[4,3-fg]quinoline-9-carboxamide], the “number of marbles buried compared to vehicle, in words” value is “reduced the number of marbles buried”.
